Here are results for one compound from patent US20240299588A1, “NERVE LABEL” (UCL Business Ltd, priority 2021, published 2024).

In one test the test system is facial nerves. Description: In vivo visualisation of facial nerves following intravenous administration of 5-ALA. Details: species or system Wistar rats. The following applies: including 24 hours after administration. Here is the method: Images were obtained 24 hours after 5-ALA administration. (A) fluorescence image (highest intensity white colour) in rats administered with 5-ALA, (B) Bright field, in rats administered with 5-ALA, (C) Bright field, in rats administered with 5-control, and (D) fluorescence image (highest intensity white colour) in rats administered with control. Images were obtained with a CCD camera following excitation at 405 nm using a light-emitting diode (LED) and red porphyrin fluorescence was recorded at 620-650 nm.
(§1) 5-ALA was obtained from Sigma as an HCl salt in powder form, was stored inside a freezer. Before use, it was thawed, dissolved in a buffered aqueous solution at about pH 5, and then administered intravenously or orally.
Wistar rats were administered with 5-ALA intravenously at different concentrations including 0 mg/kg (control), 100 mg/kg and 200 mg/kg. In vivo visualisation of facial nerves which are part of the cranial nerves were performed at various times including 24 hours after administration of 5-ALA. […] No fluorescence was detected in control rats (FIG. 8D).

The next test relates to brachial plexus. Description: In vivo peripheral nerve labelling in rats, intravenous 5-ALA, fluorescence imaging of brachial plexus. Details: species or system Wistar rats. The procedure:
(§2) Images were obtained 24 hours after 5-ALA administration using a CCD camera following excitation at 405 nm and porphyrin fluorescence was recorded at 620-650 nm. Scale bar 5 mm.
False colour scale, red/white corresponding to high intensity. BP: brachial plexus, ALN: axillary lymph node. (A): Fluorescence image of the brachial plexus 4 hours post-injection, and (B) the corresponding bright field image (C): Fluorescence image of the brachial nerve 24 hours post-injection. (D): Brachial plexus image in control rat without 5-ALA injection.
5-ALA was obtained from Sigma as an HCl salt in powder form, was stored inside a freezer. […]
(§3) To investigate the potential of a porphyrin prodrug for in vivo peripheral nerve labelling, Wistar rats (n>10 were injected intravenously with the porphyrin prodrug (5-aminolevulinic acid, 5-ALA), as shown in FIG. 1. At set time-points after the injection, the rats were sacrificed and the sciatic nerves and brachial plexus (near the armpit) and surrounding tissues (e.g. muscle, fat tissues) were exposed. The fluorescence image was recorded using a CCD camera.
Wistar rats were administered with 5-ALA intravenously at various concentrations including 100 mg/kg and 200 mg/kg. […] 5-ALA-induced fluorescence was also detected 4 hours after administration of 5-ALA.

The test system of test [1] is sciatic nerves. Put plainly: In vivo visualisation of sciatic nerves at various times following intravenous administration of 5-ALA. Details: species or system Wistar rats. Here is the method: as §2, §1
Wistar rats were administered with 5-ALA intravenously at various concentrations including 100 mg/kg and 200 mg/kg. In vivo visualisation of peripheral nerves such as sciatic nerves and brachial plexus were obtained at various post injection times ranging from 1 hours up to few weeks after administration of 5-ALA. […] 5-ALA-induced fluorescence was also detected 4 hours after administration of 5-ALA.

Test [2] relates to sciatic nerves. Description: In vivo peripheral nerve labelling in rats, intravenous 5-ALA, fluorescence imaging of sciatic nerve. Details: species or system Wistar rats. The procedure: Images were obtained 24 hours after 5-ALA administration. A: bright field, B: fluorescence image with false colour scale (highest intensity red/white) in rats injected with porphyrin prodrug, C: control rat without any drug injection. Images were obtained with a CCD camera following excitation at 405 nm using a light-emitting diode (LED) and red porphyrin fluorescence was recorded at 620-650 nm. Scale bar 5 mm.
as §1, §3

For a further test, the system named is sciatic nerve. Put plainly: In vivo imaging of sciatic nerve in rat following oral administration of 5-ALA. Details: species or system rats. Here is the method: Images were obtained 24 hours after 5-ALA administration. (A) Bright field, (B) fluorescence image with false colour scale (highest intensity red/white) in rats administered with 5-ALA. Images were obtained with a CCD camera following excitation at 405 nm using a light-emitting diode (LED) and red porphyrin fluorescence was recorded at 620-650 nm.
as §1
A high fluorescence signal-to-background ratio (SBR) on the peripheral nerves was observed compared to adjacent tissues. […] The results were reproducible and were tested in 5 rats.

Setting [3] is: sciatic nerve, intravenous injection, excitation 405 nm, fluorescence 620-650 nm, without optimisation of dose or time.

As for `NCC(=O)CCC(=O)O` [5-ALA, 5-aminolevulinic acid], in the test with facial nerves, the “5-ALA induced fluorescence (PpIX) in branches of facial nerves” value was “bright and localised”. Also, the “time course of nerve fluorescence in other peripheral nerves” value in the test on brachial plexus (brachial plexus, compared with sciatic nerve time course) is listed as “same results”. The brachial plexus labelling result in the test with brachial plexus (intravenous injection) is “brachial plexus labelling”. Further, the “fluorescence intensity in nerve” value in the test with sciatic nerves [1] (2 weeks after administration) and in the test on sciatic nerves [1] (4 weeks after administration) was “returned close to background levels” in each case. In addition, the “5-ALA-induced fluorescence (PpIX) in sciatic nerve” value with sciatic nerves [1] (4 hours after intravenous administration) was “detected”; in the test with sciatic nerves [1] (24 hours after intravenous administration), “bright and localised”. The “visualisation of sciatic nerves” value in the test on sciatic nerves [1] (3 days after systemic administration) and with sciatic nerves [1] (5 days after systemic administration) was “clearly visualised” in each case. In the test on sciatic nerves [1] (peripheral nerves), the “shortest time after contacting or administration at which peripheral nerves can be visualised” value is at least 1 h. In addition, in the test on sciatic nerves [1] (peripheral nerves), the “time that peripheral nerves retain high levels of fluorescence compared to background after administration” value was “up to 7 days”. In the test with sciatic nerves [1] (peripheral nerves, PpIX cleared from adjacent tissues), the “time after administration at which the highest SBR may be achieved” value was “about 24 hours”. In addition, the “red porphyrin fluorescence in rat nerves” value in the test on sciatic nerves [2] (intravenous injection) is “highly selective and localised”; with sciatic nerve (24 hours after administration) it was “highly selective and localised”. The “diameter of small nerve branches that can be resolved” value in the test on sciatic nerves [2] (intravenous injection, fluorescence imaging) is about 0.1 mm. Moreover, the “nerve to fat tissue ratio (fluorescence signal-to-background ratio)” value with sciatic nerves [2] (setting [3]) is recorded as over 10. For the same compound, in the test on sciatic nerves [2] (setting [3]), the “nerve to muscle intensity ratio (fluorescence signal-to-background ratio)” value was over 15. The “time at which porphyrin levels reach a peak in surrounding tissue” value in the test with sciatic nerves [2] (surrounding tissue (muscle, fat), then rapid decline to basal levels) is about 4 h. For the same compound, the “fluorescence signal ratio versus adjacent tissues” value in the test on sciatic nerve (tested in 5 rats) was “comparable to the intravenous injection route”.
